One series concerns progressive MS patients. To be noted: cited from earlier work.
In another series the test system is SP & PPMS forms. To be noted: summary of prior art; cited from earlier work.
The subject of another series is dendritic cells. To be noted: mice model; cited from earlier work.
For another series, the system named is microglia. To be noted: cited from earlier work.
For series [1], the system named is Jurkat cell line (lymphom of T cells). To be noted: through inhibition of NFAT and MAPK-Erk 1/2; cited from earlier work.
The next series relates to EAE model. To be noted: prophylactic administration; cited from earlier work.
The conditions of series [2]: many clinical studies; cited from earlier work.
The subject of series [3] is patients with progressive forms of Multiple Sclerosis. Briefly: Controlled, randomized, double-blinded human clinical trial of andrographolide. In kind it is in vivo. The procedure:
We have tested andrographolide in a controlled, randomized, double-blinded human clinical trial of andrographolide 140 mg orally administered twice per day (i.e., 280 mg per day) in patients with progressive forms of Multiple Sclerosis. The principle objective of that study was to determine efficacy, safety and tolerability of andrographolide in retarding the progression of brain atrophy. Secondary end-points included: delay in the disability capacity progression through the Expanded Disability Status Scale (EDSS) and Multiple Sclerosis Funcitonal Composite (MSFC) at 24 months compared to the baseline; delay in cognitive impairment by means of Paced Auditory Serial Addition Test (PASAT), Symbol Digit Modalities Test (SDMT) and depression (Beck) at 24 months compared to the baseline; quality of life Multiple Sclerosis Impact Scale (MSIS 29) and fatigue (Krupp) through parameters reported by the patients at 24 months compared to the baseline; Tolerability of andrographolide measured by Magnetic Resonance (MR) at 24 months compared to baseline; Number and volume of new lesions or larger size in T2 by MR at 24 months compared to the baseline; Number of new hipointense lesions in T1 or (gadolinium captive) by MR at 24 months compared to baseline; Delay in the retinal thinning measured by Optical Coherence Tomography (OCT) and visual field at 24 months compared to the baseline; and Safety of andrographolide at 24 months through the record of adverse effects in symptom diary and programmed interviews. The details of the study are described more completely in U.S. Provisional patent application Ser. No. 62/347,218 (filed 8 Jun. 2016), incorporated here by reference.
The numbers (x axis) on the figure are measurements 6: corresponds to 2 year treatment. There are still many patients that need to complete the 2 year treatment. The data therefore show a lot of variance. […] The 9-HPT is a brief, standardized, quantitative test of upper extremity function. It is the second component of the MSFC to be administered at each visit. Both the dominant and non-dominant hands are tested twice. The patient is seated at a table with a small, shallow container holding nine pegs and a wood or plastic block containing nine empty holes. On a start command when a stopwatch is started, the patient picks up the nine pegs one at a time as quickly as possible, puts them in the nine holes, and, once they are in the holes, removes them again as quickly as possible one at a time, replacing them into the shallow container. The total time to complete the task is recorded. Two consecutive trials with the dominant hand are immediately followed by two consecutive trials with the non-dominant hand.
There are 3 components of the Multiple Sclerosis Functional Composite (MSFC) disease activity index: function of the legs, function of the arms and cognitive function. The corresponding tests are a 25 feet (7.6 m) walk; test of 9 holes and pin and the Paced Auditory Serial Addition test 3 (PASAT3). Multiple attempts will be made of each test in each visit. The MSFC score and the scores of the 3 sub-scales and the change from the basal values will be recorded in each visit
One measure of progressive MS disease severity is the Expanded Disability Status Scale (EDSS). EDSS is a scale to determine the neurological disability in MS and is used to confirm progression of the disease. It consists of a system of two parts. The first part measures eight functional systems (FS). The second part measures disability on a scale of […], zero being no disability and 10 being death due to MS.
The Nine Hole Pin Test (9HPT) is a component of the MS Functional Composite (MSFC) score. 9HPT is a timed test measuring the time (seconds) required to insert each of nine pins into nine holes in a plank. The test is done on each of the right and left arms. The test measures eye-hand coordination and fine muscle control. […]

The subject of series [4] is MOG-immunized C57BL/6J mice (EAE). Kind of series: EAE therapeutic treatment from chronic phase (day 15 post-immunization). In kind it is in vivo. How it is done:
[…] […] As controls MOG-immunized C57BL/6J mice were injected with vehicle (PBS) daily. At day 21 p.i. mice were sacrificed. MOG-immunized mice treated with either PBS (A-C) or AG (B-D) were perfussed and 4% p-formaldehyde fixed. Toraxic spinal cords sections were dissected and analyzed for inflammatory infiltrate by hematoxylin-eosin staining (H&E) and for demyelination with luxol fast blue staining (LFB). Insets show higher magnification (20×).

The next series relates to patients with PPMS. To be noted: 95% confidence interval 0.71-1.07; p=0.1753; non-significant delay; cited from earlier work.
In the next series the test system is SPMS and PPMS patients. To be noted: cited from earlier work.
Another series has as its system PPMS patients. To be noted: cited from earlier work.
The subject of series [5] is patients with worsening RRMS or SPMS with relapses. To be noted: 24 months, 95% CI 0.17-0.44; p<0.001; cited from earlier work.
Series [6] relates to patients with RRMS, PRMS and SPMS with relapses. To be noted: 2 years follow-up, p=0.05; cited from earlier work.
The subject of series [7] is patients with Secondary progressive MS. To be noted: cited from earlier work.
The subject of series [8] is subjects with Secondary progressive MS with relapses. To be noted: vs placebo; cited from earlier work.
The test system of a further series is MS participants. To be noted: cited from earlier work.
The next series concerns MOG-immunized mice (EAE). Kind of series: EAE prevention: treatment before MOG immunization, daily clinical score. In kind it is in vivo. To be noted: MOG-immunized one week after treatment, FIG. 1B. How it is done: (§1) (A) Lymph node cell suspensions obtained from C57BL/6 and BALB/c mice were co-cultured with increasing concentrations of IB-MS for 72 h. After this time, supernatants were harvested and analyzed for IL-2 release by ELISA assay (circles) and T cell proliferation (squares) was determined by Cell Titer assay. (B) Mice treated with vehicle (solid circles) or andrographolide (empty circles) were MOG-immunized one week later and clinical score determined daily.

Series [9] has as its system Lymph node cell suspensions obtained from C57BL/6 and BALB/c mice. Kind of series: Lymph node cell co-culture, IL-2 release (ELISA) and T cell proliferation (Cell Titer). In kind it is cell-based. To be noted: increasing concentrations, 72 h, FIG. 1A. The procedure:
as §1
(In an ELISA, binding on a coated surface is turned into a signal by an enzyme label.)

In series [10] the test system is patients with all clinical forms of MS. To be noted: cited from earlier work.
Setting [11] is: twelve months of treatment, FIG. 7.
Where [12] appears, read: 4 mg/kg daily, day 15 to day 20 post-immunization, FIG. 3.

Like-named read-outs stand apart in the source and are kept apart here.

In the case of `CN(Cc1cnc2nc(N)nc(N)c2n1)c1ccc(C(=O)N[C@@H](CCC(=O)O)C(=O)O)cc1` [methotrexate, Methotrexate], the major side effects result with progressive MS patients (in vivo) is reported as “no major side effects”. Moreover, in the series with progressive MS patients (placebo 89.7%), the “minor side effects reported” value is given as 87.1%. In addition, in the series on progressive MS patients (vs placebo), the “sustained EDSS progression and number of relapses” value is “non-significant reduction”; the “time to first relapse” value was “no difference in time to first relapse”. Also, the “slowing down / reduction of disability progression in progressive MS” value (shortened to “slowing down / reduction”) in the series with SP & PPMS forms is listed as “do not show a reduction in the progression of disability”.
For `C=C1CC[C@@H]2[C@](C)(CO)[C@H](O)CC[C@@]2(C)[C@@H]1C/C=C1/C(=O)OC[C@H]1O` [andrographolide, Andrographolide], the “maturation of dendritic cells and capacity to present antigens to T cells” value in the series with dendritic cells is “decreases”. The “reactive oxygen species, TNF-α, nitric oxide and prostaglandins E2” value in the series on microglia is “reduces”. In addition, in series [1], the “process of activation of Jurkat cell line” value is given as “decreases”. Also, in the series on EAE model, the “development of EAE” value was “prevents the development Of EAE”. In addition, the tolerability and safety result in series [2] is “well tolerated and safe”. The “efficacy, interim results” value in series [3] (12 months of treatment) is given as “statistically-significant efficacy”. Besides, the “Expanded Disability Status Scale (EDSS)” value in [3] (12 months of treatment vs placebo, FIG. 6) is given as “an improvement viz placebo which becomes statistically-significant by nine months”. The “MSIS 29 scale scores” value in series [3] (preliminary, 2 years vs day 0, FIG. 11) was “maintain or slightly improve their scores”. In series [3] (treatment group (a), after 2 years, from 80 at day 0, FIG. 11), the “MSIS 29 scale” value is recorded as 90 percentage. Moreover, in series [3] (setting [11]), the “Nine Hole Pin Test, left hand (9HPT-L), time to complete” value is reported as “the improvement becomes statistically significant almost immediately” and the “Nine Hole Pin Test, right hand (9HPT-R), time to complete” value is on record as “improvement becomes statistically significant by twelve months of treatment”. The “9-HPT (upper extremity function)” value in [3] (up to 2 year treatment, FIG. 10) was “the treated patients are more skilled and more quickly complete the task”. In addition, the “25-Feet Walk Test (25 FWT), time to complete” value in [3] (vs placebo, twelve months, preliminary data, FIG. 8) was “improvement becomes statistically significant immediately on commencement of treatment”. In series [4] (setting [12]), the “demyelination in spinal cord (LFB)” value is recorded as “reduced” and the “inflammatory infiltrate in spinal cord (H&E)” value is listed as “reduced”.
As to Glatiramer Acetate, the “time to sustained accumulated disability (hazard ratio)” value in the series on patients with PPMS is 0.87. Further, the “slowing down / reduction” value in the series on SP & PPMS forms was “failed to demonstrate efficacy”. In addition, in the series on SPMS and PPMS patients (in vivo), the local injection-site reactions entry is listed as “up to a half of patients” and the major toxicity entry was “No major toxicity”. In addition, the “benefit in SPMS and PPMS patients” value in the series with SPMS and PPMS patients (meta-analysis) is “No benefit”.
For Rituximab, the “increase in T2 lesion volume” value in the series with PPMS patients (baseline to week 96, p<0.001) is “less”. For the same compound, the brain volume change entry in the series on PPMS patients (baseline to week 96, p=0.62) is listed as “similar”. The “confirmed disease progression, 96-week rate” value in the series with PPMS patients (placebo 38.5%, p=0.14, not significant) is reported as 30.2%. Further, the adverse events result with PPMS patients (vs placebo) is listed as “comparable between groups”.
Turning to `O=C1c2c(O)ccc(O)c2C(=O)c2c(NCCNCCO)ccc(NCCNCCO)c21` [mitoxantrone, Mitoxantrone], in the series with SP & PPMS forms, the “slowing down / reduction” value was “do not show a reduction in the progression of disability”. Also, in series [5], the “different clinical measures (difference vs placebo)” value was 0.3. In addition, the “proportion of patients with 6-months confirmed progression of disability (Odds Ratios)” value in series [6] was 0.3.
Interferon beta-1b [IFNB-1b]: the “slowing down / reduction” value in the series with SP & PPMS forms is “failed to demonstrate efficacy”. Besides, the “time to confirmed 1.0 point progression on the Expanded Disability Status Scale (EDSS)” value in series [7] (p=0.007) was “delayed”. The “progression of 2.0 EDSS point, lower” value in series [7] (vs placebo) was 27%. Also, in series [8], the “relapse and MRI-related outcomes” value is “significant benefit”; the “time to confirmed progression of disability” value is reported as “no treatment benefit”.
natalizumab: the “slowing down / reduction” value in the series on SP & PPMS forms is on record as “no effect on the progressive forms”.
As to `O=P1(N(CCCl)CCCl)NCCCO1` (stereo not drawn) [cyclophosphamide, Cyclophosphamide], the “slowing down / reduction” value in the series with SP & PPMS forms is on record as “do not show a reduction in the progression of disability”. In addition, the “long-term clinical disability progression (evolution to a next step of EDSS score)” value in the series on MS participants (12, 18, 24 months) was “did not prevent”. Also, the “mean change in disability (effect size)” value in the series on MS participants (12 months, 95% confidence interval −0.25 to −0.17) is recorded as −0.21; in the series with MS participants (18 months, 95% confidence interval −0.24 to −0.14), −0,19; with MS participants (24 months, CI 0.07 to 0.21, favoured the control group) it was 0.14.
For the compound Andrographolide, the EAE clinical score result with MOG-immunized mice (EAE) is “prevents EAE”. In series [9], the “T cell activation (IL-2 release, T cell proliferation)” value is “interferes with T cell activation”. The “effect in EAE” value in [4] (4 mg/kg every second day, day 15 to day 30 post-immunization, FIG. 2) was “has a therapeutic effect in EAE”.
As for `Cn1cnc([N+](=O)[O-])c1Sc1ncnc2nc[nH]c12` [azathioprine, Azathioprine], in the series with SP & PPMS forms, the “slowing down / reduction” value was “do not show a reduction in the progression of disability”. Besides, the “number of patients who had relapses, relative risk reduction [RRR]” value is reported as 20% in [10] (first year of treatment, 95% CI=5% to 33%); 18% in [10] (three years follow-up, 95% CI=7% to 27%); 23% in series [10] (two years, 95% CI=12% to 33%). Further, the “number of patients who progressed, RRR” value in series [10] (three years' follow-up, 95% CI=7% to 64%, 87 patients) is given as 42%.
